Reference: US9345738B2, “Methods for the prevention or treatment of no-reflow following ischemia/reperfusion injury” (Stealth BioTherapeutics Corp., priority 2010, dated 2016)
Non-standard residues stand in square brackets, D forms with d. No end group written: not given here.

How the values were obtained:
mu-opioid receptor = settings: stated in the description, no data shown; cited from earlier work
[1] = system: brain, ischemia/reperfusion insult; assay: Mouse model of cerebral ischemia-reperfusion (occlusion of the middle cerebral artery); format: in vivo; settings: wild type mice; 2-5 mg/kg ip at 0, 6, 24 and 48 h after ischemia; predicted
Procedure: Cerebral ischemia initiates a cascade of cellular and molecular events that lead to brain damage. One such event is an anatomic zone of no-reflow. Cerebral ischemia is induced by occlusion of the right middle cerebral artery for 30 min. Wild-type (WT) mice are given either saline vehicle (Veh) (ip) or D-Arg-2′,6′-Dmt-Lys-Phe-NH2 (acetate salt) (2-5 mg/kg) at 0, 6, 24 and 48 h after ischemia. Mice are killed 3 days after ischemia. The brains are sliced transversely into 6-8 sections. The slices are photographed under ultraviolet light to identify the region of no-reflow. The areas of no-reflow in each slice are digitized using Image J (supplier Rasband WS, Image J, National Institutes of Health). The areas in each slice are multiplied by the weight of the slice and the results will summed in order to obtain the mass of the no-reflow areas.
As such, the peptide D-Arg-2′,6′-Dmt-Lys-Phe-NH2 is effective in reducing the incidence of no-reflow caused by ischemia-reperfusion in the brain.

[2] = system: kidney, ischemia/reperfusion insult; assay: Rat model of renal ischemia-reperfusion; format: in vivo, Sprague Dawley rat; settings: rats; 3 mg/kg 30 min before ischemia and before reperfusion; 45 min ischemia and 24 h reperfusion; predicted
Procedure: Sprague Dawley rats (250-300 g) are assigned to three groups: (1) sham surgery group without I/R; (2) I/R+saline vehicle treatment; (3) I/R+D-Arg-2′,6′-Dmt-Lys-Phe-NH2 (acetate salt) treatment. D-Arg-2′,6′-Dmt-Lys-Phe-NH2 (acetate salt) (3 mg/kg, dissolved in saline) is administered to rats 30 min before ischemia and immediately before onset of reperfusion. The control rats are given saline alone on the same schedule. Rats are anesthetized with a mixture of ketamine (90 mg/kg, i.p.) and xylazine (4 mg/kg, i.p.). The left renal vascular pedicle is occluded temporarily using a micro-clamp for 30 or 45 min. At the end of the ischemic period, reperfusion is established by removing of the clamp. At that time, the contralateral right kidney is removed. After 24 h reperfusion, animals are sacrificed and blood samples were obtained by cardiac puncture. Renal function is determined by blood urea nitrogen (BUN) and serum creatinine (BioAssay Systems DIUR-500 and DICT-500).
Analysis of No-reflow Zones, and Necrosis. The kidneys are sliced transversely into 6-8 sections. The slices are photographed under ultraviolet light to identify the region of no reflow. The areas of no-reflow in each slice are digitized using Image J (supplier Rasband WS, Image J, National Institutes of Health). […]

[3] = system: anatomic zone of no-reflow in the heart; assay: No-reflow phenomenon in humans with ST-segment elevation treated with PCI; format: in vivo, human; settings: patients; iv bolus less than 10 min before direct stenting; vs placebo; predicted
Procedure: Men and women, 18 years of age or older, who present within 6 hours after the onset of chest pain, who have ST-segment elevation of more than 0.1 mV in two contiguous leads, and for whom the clinical decision is made to treat with percutaneous coronary intervention (PCI) are eligible for enrollment. Patients are eligible for the study whether they are undergoing primary PCI or rescue PCI. Occlusion of the culprit coronary artery (Thrombolysis in Myocardial Infarction [TIMI] flow grade 0) at the time of admission is also a criterion for inclusion.
Left ventricular and coronary angiography is performed with the use of standard techniques, just before revascularization. […]
The primary end point is the size of the anatomic zone of no-reflow as assessed by one or more imaging techniques. Re-flow phenomenon is assessed using myocardial contrast echocardiography, coronary angiography, myocardial blush, coronary doppler imaging, electrocardiography, nuclear imaging single-photon emission CT, using thallium or technetium-99m, or PET. […] Post-contrast delayed enhancement is used on day 4±1, day 30±3 and 6+1.5 months after successful PCI and stenting to quantify infracted myocardium. This is defined quantitatively by an intensity of the myocardial post-contrast signal that is more than 2 SD above that in a reference region of remote, non-infarcted myocardium within the same slice. […]

[4] = system: rabbit heart, ischemia/reperfusion insult; assay: Rabbit model of AMI: regional myocardial ischemia (30 min CAO) and reperfusion (3 h); risk zone, no-reflow zone and infarct size; format: in vivo, New Zealand White rabbit; settings: for No-reflow/area at risk / No-reflow/area of necrosis: all hearts with AR >10% of LV, mean ± SEM; for Mean IA/AR: low dose
[5] = system: plasma membrane of several mammalian cell types; settings: Zhao et al., 2003; cited from earlier work
[6] = Group 1, N=15, infusion from 10′ after CAO
[7] = Group 2, N=17, infusion from 20′ after CAO
[8] = Group 3, N=17, infusion from 29′ after CAO

Tyr-D-Arg-Phe-Lys-NH2
mu-opioid receptor agonist activity (mu-opioid receptor): has mu-opioid receptor agonist activity

F[dR]FK-NH2
mu-opioid receptor agonist activity (mu-opioid receptor): does not have mu-opioid receptor agonist activity

D-Arg-2′,6′-Dmt-Lys-Phe-NH2
anatomic zone of no-reflow in the brain [1]: prevent or reduce the anatomic zone of no-reflow
infarct volume [1]: significant reduction in infarct volume
anatomic zone of no-reflow in the kidney [2]: prevents or reduces the anatomic zone of no-reflow
size of the anatomic zone of no-reflow [3]: smaller anatomic zone of no-reflow than that seen with placebo
No-reflow/area at risk [4, 6]: 0.23 ± 0.02
No-reflow/area of necrosis [4, 6]: 0.74 ± 0.04
No-reflow/area at risk [4, 7]: 0.21 ± 0.03
No-reflow/area of necrosis [4, 7]: 0.63 ± 0.05
No-reflow/area at risk [4, 8]: 0.21 ± 0.03
No-reflow/area of necrosis [4, 8]: 0.70 ± 0.09
no-reflow for any given risk zone size ([4]; rabbit AMI, ANCOVA, treated groups combined vs control p=0.0085): significantly reduced
infarct size reduced by up to ([4]; rabbit AMI, in some experiments (Table 13; FIG. 5)): up to 44.7%
infarct size reduced, average ([4]; rabbit AMI, in some experiments (not shown)): 11%
Results: reduction of mean IA/AR from placebo ([4]; rabbit AMI, infusion started 10 min into 30 min of ischemia): ↓44.7% from placebo
Results: reduction of mean IA/AR from placebo ([4]; rabbit AMI, infusion started 20 min into 30 min of ischemia): ↓25.5% from placebo
Results: reduction of mean IA/AR from placebo ([4]; rabbit AMI, infusion started 30 min into ischemia immediately prior to reperfusion): ↓25.5% from placebo
Mean IA/AR ([4]; rabbit AMI, iv infusion started 10 min into 30 min of ischemia): 20.7%
Mean IA/AR ([4]; rabbit AMI, iv infusion started 20 min into 30 min of ischemia): 27.9%
Mean IA/AR ([4]; rabbit AMI, iv infusion started 30 min into ischemia immediately prior to reperfusion): 26.7%
reduction in the extent of no-reflow compared with control hearts (trend) ([4]; rabbit AMI, treated vs control): 21%
Necrotic area divided by area-at-risk (AN/AR), mean ([4]; rabbits with AR/LV >15%, all active groups combined, N=48): 0.318
mu-opioid receptor agonist activity (mu-opioid receptor): does not have mu-opioid receptor agonist activity

2′,6′-Dmt-D-Arg-Phe-Lys-NH2
penetration of the plasma membrane [5]: readily penetrates the plasma membrane of several mammalian cell types in an energy-independent manner
